Measurements: paper PMC5218480 (PLoS ONE, 2017)

Tested on: MV-4-11 cells
Experiment: Gene expression microarray analysis (Affymetrix PrimeView) and GSEA
Format: cell-based, human
Design: RFU PODN (11730768_x_at) / Fold change /veh PODN (11730768_x_at) / RFU LINC00158 (11744669_a_at) / Fold change /veh LINC00158 (11744669_a_at) / RFU DUSP10 (11751237_a_at) / Fold change /veh DUSP10 (11751237_a_at) / RFU ID3 (11757404_x_at) / Fold change /veh ID3 (11757404_x_at) / RFU PLEKHG5 (11737974_s_at) / Fold change /veh PLEKHG5 (11737974_s_at) / RFU LRRC4B (11730491_at) / Fold change /veh LRRC4B (11730491_at) / RFU GIMAP4 (11747438_a_at) / Fold change /veh GIMAP4 (11747438_a_at) / RFU KRT8 (11758183_x_at) / Fold change /veh KRT8 (11758183_x_at) / RFU CNN1 (11734310_a_at) / Fold change /veh CNN1 (11734310_a_at) / RFU VPS37D (11726825_at) / Fold change /veh VPS37D (11726825_at) / RFU C10orf10 (11716522_x_at) / Fold change /veh C10orf10 (11716522_x_at) / RFU KIR2DL2 /// KIR2DL4 /// KIR2DL5A /// KIR2DL5B /// KIR2DS1 /// KIR2DS2 /// KIR2DS3 /// KIR2DS4 /// KIR3DL3 /// KIR3DL3 /// KIR3DS1 (11738374_at) / Fold change /veh KIR2DL2 /// KIR2DL4 /// KIR2DL5A /// KIR2DL5B /// KIR2DS1 /// KIR2DS2 /// KIR2DS3 /// KIR2DS4 /// KIR3DL3 /// KIR3DL3 /// KIR3DS1 (11738374_at) / RFU C1QL1 (11718748_at) / Fold change /veh C1QL1 (11718748_at) / RFU TMPRSS4 (11747572_a_at) / Fold change /veh TMPRSS4 (11747572_a_at) / RFU HAMP (11756126_x_at) / Fold change /veh HAMP (11756126_x_at) / RFU RNFT2 (11725882_a_at) / Fold change /veh RNFT2 (11725882_a_at) / RFU NR4A2 (11747474_a_at) / Fold change /veh NR4A2 (11747474_a_at) / RFU ABCC12 (11746883_a_at) / Fold change /veh ABCC12 (11746883_a_at) / RFU TMEM136 (11760407_x_at) / Fold change /veh TMEM136 (11760407_x_at) / RFU CLDN22 /// WWC2 (11732394_at) / Fold change /veh CLDN22 /// WWC2 (11732394_at) / RFU HLA-DPB1 (11760878_x_at) / Fold change /veh HLA-DPB1 (11760878_x_at) / RFU SPINT1 (11716480_a_at) / Fold change /veh SPINT1 (11716480_a_at) / RFU GAP43 (11754022_s_at) / Fold change /veh GAP43 (11754022_s_at) / RFU A4GNT (11735810_at) / Fold change /veh A4GNT (11735810_at) / RFU PRB3 (11715151_x_at) / Fold change /veh PRB3 (11715151_x_at) / RFU TUBB4B (11761932_at) / Fold change /veh TUBB4B (11761932_at) / RFU CAPN14 (11732068_a_at) / Fold change /veh CAPN14 (11732068_a_at) / RFU TMCC2 (11721928_a_at) / Fold change /veh TMCC2 (11721928_a_at) / RFU IRGQ (11745062_a_at) / Fold change /veh IRGQ (11745062_a_at) / RFU FAM174B (11720279_a_at) / Fold change /veh FAM174B (11720279_a_at) / RFU TMPRSS4 (11748680_a_at) / Fold change /veh TMPRSS4 (11748680_a_at) / RFU FAM212B (11763350_a_at) / Fold change /veh FAM212B (11763350_a_at) / RFU PLEKHG5 (11743358_a_at) / Fold change /veh PLEKHG5 (11743358_a_at) / RFU ZSCAN30 (11745921_a_at) / Fold change /veh ZSCAN30 (11745921_a_at) / RFU CMKLR1 (11741424_a_at) / Fold change /veh CMKLR1 (11741424_a_at) / RFU LOC101060620 /// MAPK8IP1 (11723275_at) / Fold change /veh LOC101060620 /// MAPK8IP1 (11723275_at) / RFU SPTSSB (11747773_x_at) / Fold change /veh SPTSSB (11747773_x_at) / RFU PRSS12 (11739890_at) / Fold change /veh PRSS12 (11739890_at) / RFU BIN1 (11741810_x_at) / Fold change /veh BIN1 (11741810_x_at) / RFU WNT11 (11732464_a_at) / Fold change /veh WNT11 (11732464_a_at) / RFU C10orf10 (11716521_a_at) / Fold change /veh C10orf10 (11716521_a_at) / RFU C5orf56 (11738089_at) / Fold change /veh C5orf56 (11738089_at) / RFU CYB561 (11721691_x_at) / Fold change /veh CYB561 (11721691_x_at) / RFU ANKRD19P (11752326_a_at) / Fold change /veh ANKRD19P (11752326_a_at) / RFU OR2T12 /// OR2T33 /// OR2T8 (11738714_s_at) / Fold change /veh OR2T12 /// OR2T33 /// OR2T8 (11738714_s_at) / RFU VCAN (11748164_a_at) / Fold change /veh VCAN (11748164_a_at) / RFU JSRP1 (11732532_at) / Fold change /veh JSRP1 (11732532_at) / RFU KRTAP10-11 (11738290_x_at) / Fold change /veh KRTAP10-11 (11738290_x_at) / RFU MYO3A (11730013_a_at) / Fold change /veh MYO3A (11730013_a_at) / RFU EBF3 (11725865_a_at) / Fold change /veh EBF3 (11725865_a_at) / RFU CAMK2N1 (11719241_x_at) / Fold change /veh CAMK2N1 (11719241_x_at) / RFU C5orf56 (11738088_a_at) / Fold change /veh C5orf56 (11738088_a_at) / RFU OLFML3 (11715873_a_at) / Fold change /veh OLFML3 (11715873_a_at) / RFU LOC100653217 /// NTM (11731650_a_at) / Fold change /veh LOC100653217 /// NTM (11731650_a_at) / RFU MAPK11 (11762145_a_at) / Fold change /veh MAPK11 (11762145_a_at) / RFU FIZ1 (11724087_x_at) / Fold change /veh FIZ1 (11724087_x_at) / RFU OASL (11726364_x_at) / Fold change /veh OASL (11726364_x_at) / RFU SOX15 (11748057_x_at) / Fold change /veh SOX15 (11748057_x_at) / RFU CD79A (11719716_a_at) / Fold change /veh CD79A (11719716_a_at) / RFU HIST1H1D (11736915_at) / Fold change /veh HIST1H1D (11736915_at) / RFU CASKIN2 (11723855_a_at) / Fold change /veh CASKIN2 (11723855_a_at) / RFU LOC730098 (11760151_x_at) / Fold change /veh LOC730098 (11760151_x_at) / RFU OR4N2 (11742367_at) / Fold change /veh OR4N2 (11742367_at) / RFU PRRT2 (11749266_a_at) / Fold change /veh PRRT2 (11749266_a_at) / RFU SNX32 (11753110_a_at) / Fold change /veh SNX32 (11753110_a_at) / RFU CDHR5 (11726645_a_at) / Fold change /veh CDHR5 (11726645_a_at) / RFU RCAN1 (11760418_a_at) / Fold change /veh RCAN1 (11760418_a_at) / RFU FAM167A (11723789_a_at) / Fold change /veh FAM167A (11723789_a_at) / RFU FAM26E (11764081_at) / Fold change /veh FAM26E (11764081_at) / RFU ISYNA1 (11749810_s_at) / Fold change /veh ISYNA1 (11749810_s_at) / RFU ACY1 (11761880_at) / Fold change /veh ACY1 (11761880_at) / RFU 11764098_at / Fold change /veh 11764098_at / RFU SAMD14 (11745864_x_at) / Fold change /veh SAMD14 (11745864_x_at) / RFU NPB (11741838_a_at) / Fold change /veh NPB (11741838_a_at) / RFU TMPRSS6 (11731388_a_at) / Fold change /veh TMPRSS6 (11731388_a_at) / RFU KRTAP10-2 (11738614_at) / Fold change /veh KRTAP10-2 (11738614_at) / RFU ARHGAP8 /// PRR5-ARHGAP8 (11727945_x_at) / Fold change /veh ARHGAP8 /// PRR5-ARHGAP8 (11727945_x_at) / RFU KRTAP5-7 /// NADSYN1 (11734609_at) / Fold change /veh KRTAP5-7 /// NADSYN1 (11734609_at) / RFU RASL12 (11751679_a_at) / Fold change /veh RASL12 (11751679_a_at) / RFU CDKN2B (11736163_a_at) / Fold change /veh CDKN2B (11736163_a_at) / RFU PRF1 (11729649_at) / Fold change /veh PRF1 (11729649_at) / RFU, ZNF638 /// ZNF638-IT1 / Fold change vs veh, ZNF638 /// ZNF638-IT1 / RFU, PANK3 / Fold change vs veh, PANK3 / RFU, SH3YL1 / Fold change vs veh, SH3YL1 / RFU, ZEB2 / Fold change vs veh, ZEB2 / RFU, NRIP1 / Fold change vs veh, NRIP1 / RFU, PTTG1IP / Fold change vs veh, PTTG1IP / RFU, CAPN2 / Fold change vs veh, CAPN2 / RFU, MED14 / Fold change vs veh, MED14 / RFU, SNORA58 / Fold change vs veh, SNORA58 / RFU, C1orf63 / Fold change vs veh, C1orf63 / RFU, LRRFIP1 / Fold change vs veh, LRRFIP1 / RFU, NDUFAF7 / Fold change vs veh, NDUFAF7 / RFU, SLC12A2 / Fold change vs veh, SLC12A2 / RFU, IBTK / Fold change vs veh, IBTK / RFU, ESF1 / Fold change vs veh, ESF1 / Fold change vs veh, TMEM50B / RFU, TAOK1 / Fold change vs veh, TAOK1 / RFU, ACBD3 / Fold change vs veh, ACBD3 / RFU, TMA16 / Fold change vs veh, TMA16 / RFU, RWDD3 / Fold change vs veh, RWDD3 / RFU, BCAT1 / Fold change vs veh, BCAT1 / RFU, EDEM3 / Fold change vs veh, EDEM3 / RFU, TMEM33 / Fold change vs veh, TMEM33 / RFU, WDR75 / Fold change vs veh, WDR75 / RFU, AHCTF1 / Fold change vs veh, AHCTF1 / RFU, TFRC / Fold change vs veh, TFRC / RFU, ZDHHC17 / Fold change vs veh, ZDHHC17 / RFU, NOM1 / Fold change vs veh, NOM1 / RFU, ARL8B / Fold change vs veh, ARL8B / RFU, ZBTB11 / Fold change vs veh, ZBTB11 / RFU, TAMM41 / Fold change vs veh, TAMM41 / RFU, KIAA1704 /// LOC100996395 / Fold change vs veh, KIAA1704 /// LOC100996395 / RFU, ING1 / Fold change vs veh, ING1 / RFU, TRMT61B / Fold change vs veh, TRMT61B / RFU, FUBP3 / Fold change vs veh, FUBP3 / RFU, TP53 / Fold change vs veh, TP53 / RFU, TNKS2 / Fold change vs veh, TNKS2 / RFU, ZFP14 / Fold change vs veh, ZFP14 / RFU, ACTR2 / Fold change vs veh, ACTR2 / RFU, PPP3R1 / Fold change vs veh, PPP3R1 / RFU, PIK3R1 / Fold change vs veh, PIK3R1 / RFU, HNRNPA1 / Fold change vs veh, HNRNPA1 / RFU, RNF170 / Fold change vs veh, RNF170 / RFU, ZNF28 / Fold change vs veh, ZNF28 / RFU, RNGTT / Fold change vs veh, RNGTT / RFU, OGT / Fold change vs veh, OGT / RFU, BRD1 / Fold change vs veh, BRD1 / RFU, MARS / Fold change vs veh, MARS / RFU, ZNF655 / Fold change vs veh, ZNF655 / RFU, FAHD1 / Fold change vs veh, FAHD1 / RFU, BDP1 / Fold change vs veh, BDP1 / RFU, LRRCC1 / Fold change vs veh, LRRCC1 / RFU, ARID1A / Fold change vs veh, ARID1A / RFU, ZNF146 / Fold change vs veh, ZNF146 / RFU, ZNF330 / Fold change vs veh, ZNF330 / RFU, GPN3 / Fold change vs veh, GPN3 / RFU, C9orf123 / Fold change vs veh, C9orf123 / RFU, N4BP2L2 / Fold change vs veh, N4BP2L2 / RFU, ARFIP1 / Fold change vs veh, ARFIP1 / RFU, FAM179B / Fold change vs veh, FAM179B / RFU, BCL10 / Fold change vs veh, BCL10 / RFU, UHRF1BP1L / Fold change vs veh, UHRF1BP1L / RFU, BET1 / Fold change vs veh, BET1 / RFU, CNOT2 / Fold change vs veh, CNOT2 / RFU, ZNF268 / Fold change vs veh, ZNF268 / Fold change vs veh, ZNF507 / RFU, DGCR2 / Fold change vs veh, DGCR2 / RFU, WDSUB1 / Fold change vs veh, WDSUB1 / Fold change vs veh, HSP90B1 /// MIR3652 / RFU, ADSS / Fold change vs veh, ADSS / RFU, GK / Fold change vs veh, GK / RFU, ZNF148 / Fold change vs veh, ZNF148 / RFU, TAF9 / Fold change vs veh, TAF9 / RFU, SLC1A5 / Fold change vs veh, SLC1A5 / RFU, SLMO2 / Fold change vs veh, SLMO2 / RFU, ABCC4 / Fold change vs veh, ABCC4 / RFU, LOC101060439 /// RAP1B / Fold change vs veh, LOC101060439 /// RAP1B / RFU, RFX7 / Fold change vs veh, RFX7 / RFU, GTPBP10 / Fold change vs veh, GTPBP10 / RFU, CNEP1R1 / Fold change vs veh, CNEP1R1 / RFU, BIVM-ERCC5 /// ERCC5 / Fold change vs veh, BIVM-ERCC5 /// ERCC5 / RFU, ILF3 / Fold change vs veh, ILF3 / RFU 11762660_at / Fold change /veh 11762660_at / RFU VCAN (11757783_s_at) / Fold change /veh VCAN (11757783_s_at) / RFU DDX43 (11728927_at) / Fold change /veh DDX43 (11728927_at) / RFU KRT8 (11758188_x_at) / Fold change /veh KRT8 (11758188_x_at) / RFU NKD1 (11759106_at) / Fold change /veh NKD1 (11759106_at) / RFU SRD5A1 (11742802_a_at) / Fold change /veh SRD5A1 (11742802_a_at) / RFU TPSAB1 /// TPSB2 (11721975_s_at) / Fold change /veh TPSAB1 /// TPSB2 (11721975_s_at) / RFU GSTM3 (11746129_a_at) / Fold change /veh GSTM3 (11746129_a_at) / RFU IL23R (11737362_x_at) / Fold change /veh IL23R (11737362_x_at) / RFU TMEM51 (11727254_a_at) / Fold change /veh TMEM51 (11727254_a_at) / RFU PIWIL2 (11732686_x_at) / Fold change /veh PIWIL2 (11732686_x_at) / RFU ORM1 (11744905_x_at) / Fold change /veh ORM1 (11744905_x_at) / RFU CCDC152 (11743942_at) / Fold change /veh CCDC152 (11743942_at) / RFU ECM1 (11717891_a_at) / Fold change /veh ECM1 (11717891_a_at) / RFU IL23R (11748794_a_at) / Fold change /veh IL23R (11748794_a_at) / RFU TNFAIP8L3 (11732012_x_at) / Fold change /veh TNFAIP8L3 (11732012_x_at) / RFU MBOAT4 (11741988_at) / Fold change /veh MBOAT4 (11741988_at) / RFU 11764193_at / Fold change /veh 11764193_at / RFU TMEM53 (11763286_at) / Fold change /veh TMEM53 (11763286_at) / RFU MAGEB2 (11727129_at) / Fold change /veh MAGEB2 (11727129_at) / RFU TMEM200A (11744735_a_at) / Fold change /veh TMEM200A (11744735_a_at) / RFU CCDC152 (11751479_a_at) / Fold change /veh CCDC152 (11751479_a_at) / RFU FAM211A (11726209_a_at) / Fold change /veh FAM211A (11726209_a_at) / RFU RGS16 (11746705_a_at) / Fold change /veh RGS16 (11746705_a_at) / RFU VCAN (11755009_s_at) / Fold change /veh VCAN (11755009_s_at) / RFU RHOB (11743442_s_at) / Fold change /veh RHOB (11743442_s_at) / RFU RGS16 (11720943_a_at) / Fold change /veh RGS16 (11720943_a_at) / RFU RGS16 (11720944_at) / Fold change /veh RGS16 (11720944_at) / RFU, VPS4B / Fold change vs veh, VPS4B / RFU, CREB1 / Fold change vs veh, CREB1 / RFU, DNAJC13 / Fold change vs veh, DNAJC13 / RFU, GNAQ / Fold change vs veh, GNAQ / RFU, CDK5R1 / Fold change vs veh, CDK5R1 / RFU, ZRANB3 / Fold change vs veh, ZRANB3 / RFU, CUL4A / Fold change vs veh, CUL4A / RFU, CCNY / Fold change vs veh, CCNY / RFU, UFL1 / Fold change vs veh, UFL1 / RFU, COG3 / Fold change vs veh, COG3 / RFU, DIAPH2 / Fold change vs veh, DIAPH2 / RFU, SKA2 / Fold change vs veh, SKA2 / RFU, AFF3 / Fold change vs veh, AFF3 / RFU, LMF1 / Fold change vs veh, LMF1 / RFU, IPO11 / Fold change vs veh, IPO11 / RFU, DFFB / Fold change vs veh, DFFB / RFU, FOXP1 / Fold change vs veh, FOXP1 / RFU, CARD8 / Fold change vs veh, CARD8 / RFU, STRN3 / Fold change vs veh, STRN3 / RFU, ADK / Fold change vs veh, ADK / RFU, RASSF2 / Fold change vs veh, RASSF2 / RFU, WIPF1 / Fold change vs veh, WIPF1 / RFU, LARP1B / Fold change vs veh, LARP1B / RFU, RASA1 / Fold change vs veh, RASA1 / RFU, RB1 / Fold change vs veh, RB1 / RFU, PPFIA1 / Fold change vs veh, PPFIA1 / RFU, MAT2A / Fold change vs veh, MAT2A / RFU, CCT5 / Fold change vs veh, CCT5 / RFU, WDR92 / Fold change vs veh, WDR92 / RFU, CUX1 / Fold change vs veh, CUX1 / RFU, TTC7A / Fold change vs veh, TTC7A / RFU, TMEM135 / Fold change vs veh, TMEM135 / RFU, DEPTOR / Fold change vs veh, DEPTOR / RFU, CPM / Fold change vs veh, CPM / RFU, DNAJB6 / Fold change vs veh, DNAJB6 / RFU, CACNA2D3 / Fold change vs veh, CACNA2D3 / RFU, DTX4 / Fold change vs veh, DTX4 / RFU, TFCP2 / Fold change vs veh, TFCP2 / RFU, GMCL1 /// GMCL1P1 / Fold change vs veh, GMCL1 /// GMCL1P1 / RFU, AEBP2 / Fold change vs veh, AEBP2 / RFU, SNHG1 /// SNORD22 /// SNORD25 /// SNORD26 /// SNORD27 /// SNORD28 /// SNORD29 /// SNORD31 / Fold change vs veh, SNHG1 /// SNORD22 /// SNORD25 /// SNORD26 /// SNORD27 /// SNORD28 /// SNORD29 /// SNORD31 / Fold change (Aza/veh), C12orf56 (ProbeSet 11735607_a_at) / Fold change (ACY-1035/veh), C12orf56 (ProbeSet 11735607_a_at) / Fold change (Aza/veh), FGFR1OP (ProbeSet 11751329_s_at) / Fold change (ACY-1035/veh), FGFR1OP (ProbeSet 11751329_s_at) / Fold change (Aza/veh), VPS36 (ProbeSet 11739960_a_at) / Fold change (ACY-1035/veh), VPS36 (ProbeSet 11739960_a_at) / RFU SYPL1 (11715823_x_at) / Fold change /veh SYPL1 (11715823_x_at) / RFU IGFBP7 (11715501_s_at) / Fold change /veh IGFBP7 (11715501_s_at) / RFU REEP3 (11722064_at) / Fold change /veh REEP3 (11722064_at) / RFU IGLL1 (11728026_x_at) / Fold change /veh IGLL1 (11728026_x_at): dose or concentration left out as unconfirmed
Conditions: ProbeSet 11728879_at; LIST B

With `Nc1ncn([C@@H]2O[C@H](CO)[C@@H](O)[C@H]2O)c(=O)n1` [azacitidine] the “RFU, PPP3R1” value was 331.25 RFU.
